In this experiment the target is Nicotinamide phosphoribosyltransferase (Homo sapiens, UniProt P43490). The experiment in a line: Enzyme Assay and NMN Detection: NAMPT reaction was performed in 50 mM HEPES, pH 7.5, containing 5 mM MgCl2, 0.1% Prionex, 0.005% Tween 20, and 1 mM TCEP at room temperature in Greiner 384-well black polypropylene plates. […] Following 2 h incubation the reaction was stopped by addition 2.5 ul 20% acetophenone in dimethyl sulfoxide (DMSO) and 2.5 ul 2 MKOH. Plates were centrifuges and added with 10.5 ul 88% formic acid. […] The increased concentration of NMN was determined from a calibration curve obtained at the time of experiment.

As a reminder, the EC50 is the concentration giving half of the maximal effect.

Chain of Nicotinamide phosphoribosyltransferase (P43490 whole entry): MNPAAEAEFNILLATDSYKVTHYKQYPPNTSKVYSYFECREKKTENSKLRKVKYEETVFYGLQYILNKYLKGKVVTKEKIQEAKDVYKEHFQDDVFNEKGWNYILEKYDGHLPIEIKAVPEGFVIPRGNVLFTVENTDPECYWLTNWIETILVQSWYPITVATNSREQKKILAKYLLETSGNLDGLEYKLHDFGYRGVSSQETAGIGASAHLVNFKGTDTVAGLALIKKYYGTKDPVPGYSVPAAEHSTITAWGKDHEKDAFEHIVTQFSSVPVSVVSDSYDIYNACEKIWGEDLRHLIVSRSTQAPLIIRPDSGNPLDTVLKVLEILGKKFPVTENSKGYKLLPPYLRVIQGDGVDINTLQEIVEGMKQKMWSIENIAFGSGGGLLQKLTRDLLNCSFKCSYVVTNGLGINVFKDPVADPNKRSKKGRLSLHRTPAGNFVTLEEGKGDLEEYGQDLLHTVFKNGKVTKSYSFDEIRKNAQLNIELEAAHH

In the case of `CCOC(=O)c1ccc(NC(=O)NCc2ccncc2)nc1`, the EC50 is > 20 µM.

On to `CCOC(=O)c1ccc(NC(=O)NCc2ccncc2)cn1`, for which the EC50 is > 20 µM.

For `NC(=O)c1ccc(NC(=O)NCc2ccncc2)nc1`, the EC50 is > 20 µM.
